From PubChem BioAssay (NCI)
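Tested at 5 concentrations; 48 h exposure; 96-well plates; endpoints linearly interpolated, else capped at highest concentration. GI50 = concentration required for 50% inhibition of growth. TGI: concentration producing complete growth inhibition.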

Experiments:
Assay in all cases: inhibition of tumour cell growth, NCI panel, 48 h
SNB-19 CNS = tested on: SNB-19 CNS
SK-MEL-5 melanoma = tested on: SK-MEL-5 melanoma
A549 NSCLC = tested on: A549 NSCLC
NCI-H522 lung = tested on: NCI-H522 lung
NCI-H226 lung = tested on: NCI-H226 lung
SF-295 CNS = tested on: SF-295 CNS
RXF 393 renal = tested on: RXF 393 renal
NCI-H460 lung = tested on: NCI-H460 lung
OVCAR-4 ovarian = tested on: OVCAR-4 ovarian
HS 578T breast = tested on: HS 578T breast
MDA-MB-435 = tested on: MDA-MB-435
CCRF-CEM leukemia = tested on: CCRF-CEM leukemia
SF-268 CNS = tested on: SF-268 CNS
HCC-2998 colon = tested on: HCC-2998 colon
SR leukemia = tested on: SR leukemia
UACC-62 melanoma = tested on: UACC-62 melanoma
SF-539 CNS = tested on: SF-539 CNS
MCF7 breast = tested on: MCF7 breast
RPMI-8226 leukemia = tested on: RPMI-8226 leukemia
LOX IMVI melanoma = tested on: LOX IMVI melanoma
OVCAR-8 ovarian = tested on: OVCAR-8 ovarian
MDA-MB-231 breast = tested on: MDA-MB-231 breast
SN12C renal = tested on: SN12C renal
UACC-257 melanoma = tested on: UACC-257 melanoma
M14 melanoma = tested on: M14 melanoma
HOP-62 NSCLC = tested on: HOP-62 NSCLC
TK-10 renal = tested on: TK-10 renal
KM12 colon = tested on: KM12 colon
HOP-92 NSCLC = tested on: HOP-92 NSCLC
MOLT-4 leukemia = tested on: MOLT-4 leukemia
SK-MEL-28 melanoma = tested on: SK-MEL-28 melanoma
SK-OV-3 ovarian = tested on: SK-OV-3 ovarian
COLO 205 colon = tested on: COLO 205 colon
ACHN renal = tested on: ACHN renal
CAKI-1 renal = tested on: CAKI-1 renal
HL-60(TB) leukemia = tested on: HL-60(TB) leukemia
HCT-116 colon = tested on: HCT-116 colon
T-47D breast = tested on: T-47D breast
SK-MEL-2 melanoma = tested on: SK-MEL-2 melanoma
786-0 renal = tested on: 786-0 renal
PC-3 prostate = tested on: PC-3 prostate
K-562 leukemia = tested on: K-562 leukemia
OVCAR-3 ovarian = tested on: OVCAR-3 ovarian
SNB-75 CNS = tested on: SNB-75 CNS
MALME-3M melanoma = tested on: MALME-3M melanoma
EKVX NSCLC = tested on: EKVX NSCLC
BT-549 breast = tested on: BT-549 breast
OVCAR-5 ovarian = tested on: OVCAR-5 ovarian
HT29 colon = tested on: HT29 colon
U251 CNS = tested on: U251 CNS
IGROV1 ovarian = tested on: IGROV1 ovarian
DU-145 prostate = tested on: DU-145 prostate
HCT-15 colon = tested on: HCT-15 colon
NCI-H23 lung = tested on: NCI-H23 lung
NCI/ADR-RES ovarian = tested on: NCI/ADR-RES ovarian
SW-620 colon = tested on: SW-620 colon
UO-31 renal = tested on: UO-31 renal
A498 renal = tested on: A498 renal

CCCn1cnc2c(c1=N)C(c1ccc(Cl)cc1)c1sc3c(CC)cccc3c1O2 (stereo not given)
GI50 (SNB-19 CNS): 592 nM
TGI (SNB-19 CNS): 15400 nM
GI50 (SK-MEL-5 melanoma): 683 nM
TGI (SK-MEL-5 melanoma): 11500 nM
GI50 (A549 NSCLC): 824 nM
TGI (A549 NSCLC): 14200 nM
GI50 (NCI-H522 lung): 407 nM
TGI (NCI-H522 lung): 5530 nM
GI50 (NCI-H226 lung): 936 nM
TGI (NCI-H226 lung): 10200 nM
GI50 (SF-295 CNS): 385 nM
TGI (SF-295 CNS): 3750 nM
GI50 (RXF 393 renal): 273 nM
TGI (RXF 393 renal): 1310 nM
GI50 (NCI-H460 lung): 392 nM
TGI (NCI-H460 lung): 10400 nM
GI50 (OVCAR-4 ovarian): 1200 nM
TGI (OVCAR-4 ovarian): 18200 nM
GI50 (HS 578T breast): 434 nM
TGI (HS 578T breast): 5640 nM
GI50 (MDA-MB-435): 250 nM
TGI (MDA-MB-435): 1000 nM
GI50 (CCRF-CEM leukemia): 370 nM
GI50 (SF-268 CNS): 820 nM
TGI (SF-268 CNS): 15200 nM
GI50 (HCC-2998 colon): 1750 nM
TGI (HCC-2998 colon): 7550 nM
GI50 (SR leukemia): 342 nM
TGI (SR leukemia): 5010 nM
GI50 (UACC-62 melanoma): 515 nM
TGI (UACC-62 melanoma): 14500 nM
GI50 (SF-539 CNS): 410 nM
TGI (SF-539 CNS): 1900 nM
GI50 (MCF7 breast): 354 nM
TGI (MCF7 breast): 11700 nM
GI50 (RPMI-8226 leukemia): 471 nM
TGI (RPMI-8226 leukemia): 7390 nM
GI50 (LOX IMVI melanoma): 706 nM
TGI (LOX IMVI melanoma): 10900 nM
GI50 (OVCAR-8 ovarian): 1380 nM
TGI (OVCAR-8 ovarian): 13400 nM
GI50 (MDA-MB-231 breast): 1950 nM
TGI (MDA-MB-231 breast): 13700 nM
GI50 (SN12C renal): 1580 nM
TGI (SN12C renal): 15000 nM
GI50 (UACC-257 melanoma): 12200 nM
TGI (UACC-257 melanoma): 33700 nM
GI50 (M14 melanoma): 588 nM
TGI (M14 melanoma): 9750 nM
GI50 (HOP-62 NSCLC): 563 nM
TGI (HOP-62 NSCLC): 8930 nM
GI50 (TK-10 renal): 7620 nM
TGI (TK-10 renal): 23500 nM
GI50 (KM12 colon): 448 nM
TGI (KM12 colon): 13400 nM
GI50 (HOP-92 NSCLC): 1250 nM
TGI (HOP-92 NSCLC): 12800 nM
GI50 (MOLT-4 leukemia): 644 nM
TGI (MOLT-4 leukemia): 9250 nM
GI50 (SK-MEL-28 melanoma): 2990 nM
TGI (SK-MEL-28 melanoma): 22400 nM
GI50 (SK-OV-3 ovarian): 670 nM
TGI (SK-OV-3 ovarian): 20800 nM
GI50 (COLO 205 colon): 971 nM
TGI (COLO 205 colon): 3930 nM
GI50 (ACHN renal): 637 nM
TGI (ACHN renal): 17000 nM
GI50 (CAKI-1 renal): 361 nM
TGI (CAKI-1 renal): 15600 nM
GI50 (HL-60(TB) leukemia): 307 nM
TGI (HL-60(TB) leukemia): 1660 nM
GI50 (HCT-116 colon): 446 nM
TGI (HCT-116 colon): 10300 nM
GI50 (T-47D breast): 581 nM
TGI (T-47D breast): 14900 nM
GI50 (SK-MEL-2 melanoma): 925 nM
TGI (SK-MEL-2 melanoma): 16000 nM
GI50 (786-0 renal): 555 nM
TGI (786-0 renal): 12900 nM
GI50 (PC-3 prostate): 564 nM
TGI (PC-3 prostate): 14700 nM
GI50 (K-562 leukemia): 328 nM
TGI (K-562 leukemia): 6150 nM
GI50 (OVCAR-3 ovarian): 347 nM
TGI (OVCAR-3 ovarian): 1780 nM
GI50 (SNB-75 CNS): 202 nM
TGI (SNB-75 CNS): 878 nM
GI50 (MALME-3M melanoma): 722 nM
TGI (MALME-3M melanoma): 20300 nM
GI50 (EKVX NSCLC): 1120 nM
TGI (EKVX NSCLC): 16600 nM
GI50 (BT-549 breast): 1960 nM
TGI (BT-549 breast): 16700 nM
GI50 (OVCAR-5 ovarian): 2130 nM
TGI (OVCAR-5 ovarian): 13300 nM
GI50 (HT29 colon): 725 nM
TGI (HT29 colon): 6130 nM
GI50 (U251 CNS): 505 nM
TGI (U251 CNS): 10900 nM
GI50 (IGROV1 ovarian): 607 nM
TGI (IGROV1 ovarian): 11800 nM
GI50 (DU-145 prostate): 615 nM
TGI (DU-145 prostate): 11400 nM
GI50 (HCT-15 colon): 497 nM
TGI (HCT-15 colon): 10400 nM
GI50 (NCI-H23 lung): 974 nM
TGI (NCI-H23 lung): 11300 nM
GI50 (NCI/ADR-RES ovarian): 419 nM
TGI (NCI/ADR-RES ovarian): 2750 nM
GI50 (SW-620 colon): 422 nM
TGI (SW-620 colon): 12800 nM
GI50 (UO-31 renal): 712 nM
TGI (UO-31 renal): 18300 nM
GI50 (A498 renal): 359 nM
TGI (A498 renal): 1830 nM
